Values of other authors as cited in patent US20210007979A1 (FULTON MEDICINAL S.P.A., priority 2018, published 2021).
Where a name gives a salt, the structure may show the parent alone.

Tests used:
[1] = not given; remark: listed apart in the source

- Permeability of the oral mucosae: low permeability
- Solubility in water [1]: sparingly soluble
Compound: CCCc1nn(C)c2c(=O)[nH]c(-c3cc(S(=O)(=O)N4CCN(C)CC4)ccc3OCC)nc12 [sildenafil citrate, Sildenafil citrate]
